# Where two headings read alike, the source gives them in different places. Marks after values point to notes of the source that are not given here.
# Experiments:
# [1] = tested on: L 1210 leukemia cells; format: in vivo
# [2] = cited from earlier work
# [3] = 11.6 mg/kg × 2 i.p., dispersion in lipiodol, oleic acid moiety two times stoichiometric amount, Table III
# [4] = L1210-CDF1 mice, dispersion in lipiodol
# [5] = 31.5 mg/kg × 2 i.p. in lipiodol, Table III
# [6] = 157 mg/kg × 2 i.p. in lipiodol, Table III
# [7] = 787 mg/kg, administered only one time, i.p. in lipiodol, Table III
# [8] = 57 mg/kg × 2 i.p. in lipiodol, Table III
# [9] = 171 mg/kg × 2 i.p. in lipiodol, Table III
# [10] = 855 mg/kg × 2 i.p. in lipiodol, Table III
# [11] = 25 mg/kg × 2 i.p. in lipiodol, Table I
# [12] = 126 mg/kg × 2 i.p. in lipiodol, Table I
# [13] = 630 mg/kg × 2 i.p. in lipiodol, Table I
compound,measurement,setting,value
"N.N.[Cl][Pt][Cl] [CDDP, Cis-dichlorodiammine platinum (II), reference compound]",CR (mice completely cured / total mice tested),[1]; [3],0/5
same,T/C (mean survival time treated / control),[1]; [3],182
same,MST (mean survival time),"[1]; 11.6 mg/kg × 2 i.p., dispersion in lipiodol, oleic acid moiety two times stoichiometric amount, Table III control MST 8.5",15.5
same,T/C (mean survival time treated / control),"[1]; 58 mg/kg × 2 i.p., dispersion in lipiodol, oleic acid moiety two times stoichiometric amount, Table III",Toxic
same,MST (mean survival time),"[1]; 58 mg/kg × 2 i.p., dispersion in lipiodol, oleic acid moiety two times stoichiometric amount, Table III control MST 8.5",4.0
same,complete recovery at rather low dose,[1]; [4],complete recovery is not observed
"NC1CCCCC1N.[Cl][Pt][Cl] (stereo not drawn) [DACHP, Dichloro cyclohexane-1,2-diammine platinum (II), reference compound]",T/C (mean survival time treated / control),"[1]; 22 mg/kg × 2 i.p., dispersion in lipiodol, oleic acid moiety two times stoichiometric amount, Table III",Toxic
same,MST (mean survival time),"[1]; 22 mg/kg × 2 i.p., dispersion in lipiodol, oleic acid moiety two times stoichiometric amount, Table III control MST 8.5",7.0
same,T/C (mean survival time treated / control),"[1]; 110 mg/kg × 2 i.p., dispersion in lipiodol, oleic acid moiety two times stoichiometric amount, Table III",Toxic
same,MST (mean survival time),"[1]; 110 mg/kg × 2 i.p., dispersion in lipiodol, oleic acid moiety two times stoichiometric amount, Table III control MST 8.5",4.0
same,toxicity when administered in a high dose,"[1]; high dose, L1210-CDF1 mice, i.p. in lipiodol",high toxicity
same,complete recovery at rather low dose,[1]; [4],complete recovery is not observed
CCCCCCCCCCCCCCCCCCCC(=O)[O][Pt][O]C(=O)CCCCCCCCCCCCCCCCCCC.NC1CCCCC1N [DACHPt(II)-(Ara)2],T/C (mean survival time treated / control),"[1]; 73 mg/kg × 2 i.p. in lipiodol, Table II",211
same,MST (mean survival time),"[1]; 73 mg/kg × 2 i.p. in lipiodol, Table II control MST 9.5",20
same,T/C (mean survival time treated / control),"[1]; 225 mg/kg × 2 i.p. in lipiodol, Table II",600
same,MST (mean survival time),"[1]; 225 mg/kg × 2 i.p. in lipiodol, Table II control MST 9.5",60
same,T/C (mean survival time treated / control),"[1]; 1127 mg/kg × 2 i.p. in lipiodol, Table II",Toxic
same,MST (mean survival time),"[1]; 1127 mg/kg × 2 i.p. in lipiodol, Table II control MST 9.5",7.0
CCCCCCCCCCCCCCCCCCCCCC(=O)[O][Pt][O]C(=O)CCCCCCCCCCCCCCCCCCCCC.NC1CCCCC1N [DACHPt(II)-(Beh)2],T/C (mean survival time treated / control),"[1]; 80 mg/kg × 2 i.p. in lipiodol, Table III",212
same,MST (mean survival time),"[1]; 80 mg/kg × 2 i.p. in lipiodol, Table III control MST 8.5",18.0
same,T/C (mean survival time treated / control),"[1]; 1195 mg/kg, administered only one time, i.p. in lipiodol, Table III",Toxic
same,MST (mean survival time),"[1]; 1195 mg/kg, administered only one time, i.p. in lipiodol, Table III control MST 8.5",2.0*^1
CCCCCCCCCC(=O)[O][Pt]1([O]C(=O)CCCCCCCCC)[NH]C2CCCCC2[NH]1 (stereo not drawn) [DACHPt(II)-(Cap)2],CR (mice completely cured / total mice tested),[1]; [5],0/6
same,T/C (mean survival time treated / control),[1]; [5],133
same,MST (mean survival time),"[1]; 31.5 mg/kg × 2 i.p. in lipiodol, Table III control MST 8.5",12.0
same,CR (mice completely cured / total mice tested),[1]; [6],2/6
same,T/C (mean survival time treated / control),[1]; [6],Toxic
same,CR (mice completely cured / total mice tested),[1]; [7],0/6
same,T/C (mean survival time treated / control),[1]; [7],111
same,MST (mean survival time),"[1]; 787 mg/kg, administered only one time, i.p. in lipiodol, Table III control MST 8.5",10.0*^1
CCCCCCCCCCCC(=O)[O][Pt][O]C(=O)CCCCCCCCCCC.NC1CCCCC1N [DACHPt(II)-(Lau)2],CR (mice completely cured / total mice tested),[1]; [8],0/5
same,T/C (mean survival time treated / control),[1]; [8],141
same,MST (mean survival time),"[1]; 57 mg/kg × 2 i.p. in lipiodol, Table III control MST 8.5",12.0
same,CR (mice completely cured / total mice tested),[1]; [9],0/5
same,T/C (mean survival time treated / control),[1]; [9],165
same,MST (mean survival time),"[1]; 171 mg/kg × 2 i.p. in lipiodol, Table III control MST 8.5",14.0
same,CR (mice completely cured / total mice tested),[1]; [10],3/5
same,T/C (mean survival time treated / control),[1]; [10],471
same,MST (mean survival time),"[1]; 855 mg/kg × 2 i.p. in lipiodol, Table III control MST 8.5",40.0
CCCCCCCCCCCCCCCCCCCCCCCC(=O)[O][Pt][O]C(=O)CCCCCCCCCCCCCCCCCCCCCCC.NC1CCCCC1N [DACHPt(II)-(Lig)2],T/C (mean survival time treated / control),"[1]; 50 mg/kg × 2 i.p. in lipiodol, Table I",150
same,MST (mean survival time),"[1]; 50 mg/kg × 2 i.p. in lipiodol, Table I control MST 10",10
same,T/C (mean survival time treated / control),"[1]; 250 mg/kg × 2 i.p. in lipiodol, Table I",100
same,MST (mean survival time),"[1]; 250 mg/kg × 2 i.p. in lipiodol, Table I control MST 10",10
same,T/C (mean survival time treated / control),"[1]; 1250 mg/kg × 2 i.p. in lipiodol, Table I",105
same,MST (mean survival time),"[1]; 1250 mg/kg × 2 i.p. in lipiodol, Table I control MST 10",10.5
same,CR (mice completely cured / total mice tested),"[1]; mouse, in vivo",0/6
CCCCCCCCCCCCCC(=O)[O][Pt][O]C(=O)CCCCCCCCCCCCC.NC1CCCCC1N [DACHPt(II)-(Myr)2],T/C (mean survival time treated / control),"[1]; 33 mg/kg × 2 i.p. in lipiodol, Table I",150
same,MST (mean survival time),"[1]; 33 mg/kg × 2 i.p. in lipiodol, Table I control MST 10",15.0
same,T/C (mean survival time treated / control),"[1]; 833 mg/kg, administered only one time, i.p. in lipiodol, Table I",Toxic
same,MST (mean survival time),"[1]; 833 mg/kg, administered only one time, i.p. in lipiodol, Table I control MST 10",8.0*^1
"CCCCCCCC/C=C\CCCCCCCC(=O)[O-].CCCCCCCC/C=C\CCCCCCCC(=O)[O-].NC1CCCCC1N.[Pt+2] [DACHPt(II)-(Ole)2, Cyclohexane-1,2-diammine Platinum (II) Dioleate]",CR (mice completely cured / total mice tested),[1]; [11],0/5
same,T/C (mean survival time treated / control),[1]; [11],130
same,MST (mean survival time),"[1]; 25 mg/kg × 2 i.p. in lipiodol, Table I control MST 10",13.0
same,CR (mice completely cured / total mice tested),[1]; [12],0/6
same,T/C (mean survival time treated / control),[1]; [12],170
same,MST (mean survival time),"[1]; 126 mg/kg × 2 i.p. in lipiodol, Table I control MST 10",17.0
same,CR (mice completely cured / total mice tested),[1]; [13],2/7
same,T/C (mean survival time treated / control),[1]; [13],Toxic
CCCCCCCCCCCCCCCC(=O)[O][Pt][O]C(=O)CCCCCCCCCCCCCCC.NC1CCCCC1N [DACHPt(II)-(Pal)2],T/C (mean survival time treated / control),"[1]; 40 mg/kg × 2 i.p. in lipiodol, Table I",110
same,MST (mean survival time),"[1]; 40 mg/kg × 2 i.p. in lipiodol, Table I control MST 10",11
same,T/C (mean survival time treated / control),"[1]; 198 mg/kg × 2 i.p. in lipiodol, Table I",115
same,MST (mean survival time),"[1]; 198 mg/kg × 2 i.p. in lipiodol, Table I control MST 10",11.5
same,T/C (mean survival time treated / control),"[1]; 991 mg/kg × 2 i.p. in lipiodol, Table I",170
same,MST (mean survival time),"[1]; 991 mg/kg × 2 i.p. in lipiodol, Table I control MST 10",17
same,CR (mice completely cured / total mice tested),"[1]; mouse, in vivo",0/6
CCCCCCCCCCCCCCCCCC(=O)[O][Pt][O]C(=O)CCCCCCCCCCCCCCCCC.NC1CCCCC1N [DACHPt(II)-(Ste)2],T/C (mean survival time treated / control),"[1]; 71 mg/kg × 2 i.p. in lipiodol, Table III",212
same,MST (mean survival time),"[1]; 71 mg/kg × 2 i.p. in lipiodol, Table III control MST 8.5",18.0
same,T/C (mean survival time treated / control),"[1]; 1060 mg/kg, administered only one time, i.p. in lipiodol, Table III",Toxic
same,MST (mean survival time),"[1]; 1060 mg/kg, administered only one time, i.p. in lipiodol, Table III control MST 8.5",7.0*^1
same,CR (mice completely cured / total mice tested),"[1]; mouse, in vivo",2/5
"N.N.O=C([O-])C1(C(=O)[O-])CCC1.[Pt+2] [carboplatin, cis-diammine-1,1-cyclobutane-dicarboxylate platinum (II)]",water solubility,[2],17800 µg/mL
"NCC1(CN)CCCCC1.O=S(=O)([O-])[O-].[Pt+2] [spiroplatin, cis-1,1-di-(aminomethyl) cyclohexane platinum (II) sulfate]",water solubility,[2],1000 µg/mL

# — US6613799B1, “Liposoluble platinum (II) complex and preparation thereof” (priority 1985, dated 2003)
